Results as given in patent US9018451B2, “Optimized expression of glyphosate resistance encoding nucleic acid molecules in plant cells” (M S Technologies, LLC, priority 2010, dated 2015).

Legend:
Test in all cases: Field trial, in planta tolerance to glyphosate, injury assessed seven days after application
Format in all cases: in vivo, Glycine max
[1] = system: Soybean event 8291-4524 expressing 2mEPSPS (construct pDAB8291); settings: 7 days after application
Method: (§1) Soybean events containing the 2mEPSPv2 expression cassette construct from pDAB8291 are tolerant to glyphosate. Field trials were performed during the 2009 and 2010 growing seasons. The plots were planted with the transgenic soybean seed which had been produced from the transformation with pDAB8291 and non-transgenic soybean (cv Maverick) which was used as a control. Field grown soybean plants from the T2 and T4 generation were sprayed with high rates of glyphosate. Glyphosate (DURANGO® herbicide Dow AgroSciences, Indianapolis, Ind.) applications were made at the V3 or V5 stage of plant development at a rate of 2,240 g ae/ha. Seven days after glyphosate application, the plants were assessed for injury.

[2] = system: non-transgenic soybean (cv Maverick); settings: Maverick non-transgenic control, 7 days after application
Method: as §1

[3] = system: Soybean event 8291-4536 expressing 2mEPSPS (construct pDAB8291); settings: 7 days after application
Method: as §1

[4] = system: soybean plants transformed with pDAB8291; settings: T2 and T4 field grown plants, 2,240 g ae/ha at V3 or V5, seven days after application
Method: as §1

## O=C(O)CNCP(=O)(O)O [Glyphosate, N-phosphonomethylglycine]
[1]; event 8291-4524, T2 generation, application at V3, 2,240 g ae/ha glyphosate
  Adjusted Mean Injury 7daa(%): 10%
[1]; event 8291-4524, T4 generation, application at V5, 2,240 g ae/ha glyphosate
  Adjusted Mean Injury 7daa(%): 0.5%
[2]; T2 trial, application at V3, 2,240 g ae/ha glyphosate
  Adjusted Mean Injury 7daa(%): 100%
[2]; T4 trial, application at V5, 2,240 g ae/ha glyphosate
  Adjusted Mean Injury 7daa(%): 100%
[3]; event 8291-4536, T2 generation, application at V3, 2,240 g ae/ha glyphosate
  Adjusted Mean Injury 7daa(%): 3.5%
[3]; event 8291-4536, T4 generation, application at V5, 2,240 g ae/ha glyphosate
  Adjusted Mean Injury 7daa(%): 0.75%
[4]
  injury (damage) to plants as compared to Maverick controls: Minimal damage
